According to ChEMBL document CHEMBL1125751, “On the optimization of hydrophobic and hydrophilic substituent interactions of 2,4-diamino-5-(substituted-benzyl)pyrimidines with dihydrofolate reductase” (J Med Chem, 1991):

Assays:
[1] = (§1) Selectivity index against Lactobacillus casei DHFR.; assay type: functional
Dihydrofolate reductase = molecular target: T1, Dihydrofolate reductase (Gallus gallus, UniProt P00378); experiment: Compound was evaluated for inhibitory activity against chicken dihydrofolate reductase; conditions: read-out: Log 1/Ki (converted)
T1 sequence (P00378 whole entry): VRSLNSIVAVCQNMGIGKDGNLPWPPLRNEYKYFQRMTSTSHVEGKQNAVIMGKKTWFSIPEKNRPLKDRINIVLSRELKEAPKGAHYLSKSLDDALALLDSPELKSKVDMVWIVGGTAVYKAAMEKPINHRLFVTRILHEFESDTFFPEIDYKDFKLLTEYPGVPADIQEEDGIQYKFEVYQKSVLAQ

[2] = (§2) Selectivity index against Escherichia coli DHFR.; assay type: functional
[3] = molecular target: T2, Dihydrofolate reductase (Homo sapiens) (UniProt P00374); experiment: as §1; assay type: functional
T2 sequence (whole entry): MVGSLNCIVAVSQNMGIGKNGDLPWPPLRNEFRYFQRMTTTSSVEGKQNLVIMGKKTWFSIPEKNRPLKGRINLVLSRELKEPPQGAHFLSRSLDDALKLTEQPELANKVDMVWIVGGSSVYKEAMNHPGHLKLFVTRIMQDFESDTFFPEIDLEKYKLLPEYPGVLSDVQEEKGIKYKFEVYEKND

[4] = molecular target: T2, Dihydrofolate reductase (Homo sapiens); experiment: as §2; assay type: functional

Structure (SMILES): CCc1cc(Cc2cnc(N)nc2N)cc(NC(C)=O)c1CO
- SI [1]: 3.36
- Ki (Dihydrofolate reductase): 708 µM
- SI [2]: 4.87

Structure (SMILES): CCc1cc(Cc2cnc(N)nc2N)cc(CO)c1CO
- SI [3]: 3.13
- SI [4]: 4.28
